Data from US5079261A, “Use of lipoxin A4 and its derivatives as antagonists for slow-reacting substances of anaphylaxis” (Brigham and Women's Hospital, priority 1989, dated 1992).

Columns and labels:
vascular smooth muscle = conditions: cited from earlier work
[1] = Renal function in vivo in anesthetized rats (AP, Hct, RPF, GFR) during intrarenal arterial infusion; design: species or system male Munich-Wistar rats; conditions: for AP / GFR / Hct / RPF: LXA4 20-min infusion, n=3
Text: Statistical: ANOVA with Bonferroni modification for multiple pre-planned comparisons was used, within each group and between groups, to compare the changes in various whole kidney and microcirculatory indices which occurred from one period to another. In phosphoinositide generation studies, increases in [^3 H]-IP3 CPMs in agonist-treated cells were compared to vehicle-treated controls using upaired students t-test. Differences were considered significant at a p value ≤0.05. All values are reported as means ± SEM.
Inulin and para-aminohippurate (PAH) clearances Were used to measure GFR and effective RPF. A needle was placed at the take-off of the left renal artery through which a maintenance infusion of 0.9% NaCl at a rate of 0.05 ml/min was initiated. […] Two experimental groups
Group I (n=14). First period: Clearances were performed during vehicle infusion.
Group II (n=12). First period: Clearances were performed during vehicle infusion.

[2] = Group II, third period, LTD4 in the presence of LXA4
[3] = LTD4 14.0 μg/kg/min + LXA4, p<0.05 vs baseline
[4] = LTD4 20.0 μg/kg/min + LXA4, p<0.05 vs baseline

**Q.** Which “Concentration that relaxes (dilates) vascular smooth muscle” value (vascular smooth muscle) does the source give for `CCCCC[C@H](O)/C=C/C=C\C=C\C=C\[C@@H](O)[C@@H](O)CCCC(=O)O` [LXA4, (5S,6R,15S)-5,6,15-trihydroxy-7,9,13-trans-11-cis-eicosatetraenoic acid] here?
**A.** less than 1 μM

**Q.** What about the “GFR and RPF change (in words)” value ([1]; Group II, LXA4 infusion, period 2) of the same compound?
**A.** moderate increases

**Q.** And the AP ([1]; Group II, period 2, subgroup A)?
**A.** 121 ± 4 mmHg

**Q.** And the GFR ([1]; Group II, period 2, subgroup A)?
**A.** 1.20 ± 0.20 mL/min

**Q.** And the Hct ([1]; Group II, period 2, subgroup A)?
**A.** 43.7 ± 0.9 Vol./dl

**Q.** What about the RPF ([1]; Group II, period 2, subgroup A) of the same compound?
**A.** 4.50 ± 0.08 mL/min

**Q.** And the AP ([1]; Group II, period 2, subgroup B)?
**A.** 120 ± 0 mmHg

**Q.** And the GFR ([1]; Group II, period 2, subgroup B)?
**A.** 0.98 ± 0.06 mL/min

**Q.** And the Hct ([1]; Group II, period 2, subgroup B)?
**A.** 44.7 ± 1.2 Vol./dl

**Q.** What about the RPF ([1]; Group II, period 2, subgroup B) of the same compound?
**A.** 4.76 ± 0.83 mL/min

**Q.** What about the AP ([1]; Group II, period 2, subgroup C) of the same compound?
**A.** 127 ± 2 mmHg

**Q.** And the GFR ([1]; Group II, period 2, subgroup C)?
**A.** 1.30 ± 0.10 mL/min

**Q.** And the Hct ([1]; Group II, period 2, subgroup C)?
**A.** 45.2 ± 0.7 Vol./dl

**Q.** What about the RPF ([1]; Group II, period 2, subgroup C) of the same compound?
**A.** 4.87 ± 0.10 mL/min

**Q.** What about the AP ([1]; Group II, period 2, subgroup D) of the same compound?
**A.** 108 ± 3 mmHg

**Q.** What about the GFR ([1]; Group II, period 2, subgroup D) of the same compound?
**A.** 1.27 ± 0.04 mL/min

**Q.** What about the Hct ([1]; Group II, period 2, subgroup D) of the same compound?
**A.** 44.5 ± 0.3 Vol./dl

**Q.** And the RPF ([1]; Group II, period 2, subgroup D)?
**A.** 4.58 ± 0.20 mL/min

**Q.** What about the “Effect on LTD4-induced falls in RPF” value [1, 2] of the same compound?
**A.** without effect

**Q.** And the “Effect on LTD4-provoked reduction in GFR” value [1, 2]?
**A.** marked blunting

**Q.** And the “Mean percent fall in GFR during LTD4 in the presence of LXA4” value (“Mean percent fall in GFR during LTD4” for short) ([1]; LTD4 0.5 μg/kg/min + LXA4)?
**A.** 9%

**Q.** What about the “Mean percent fall in RPF during LTD4 in the presence of LXA4” value (“Mean percent fall in RPF during LTD4” below) ([1]; LTD4 0.5 μg/kg/min + LXA4, p<0.05 vs baseline) of the same compound?
**A.** 20%

**Q.** And the “Mean percent fall in GFR during LTD4” value ([1]; LTD4 7.0 μg/kg/min + LXA4)?
**A.** 11%

**Q.** And the “Mean percent fall in RPF during LTD4” value ([1]; LTD4 7.0 μg/kg/min + LXA4, p<0.05 vs baseline)?
**A.** 37%

**Q.** And the “Mean percent fall in GFR during LTD4” value [1, 3]?
**A.** 42%

**Q.** What about the “Mean percent fall in RPF during LTD4” value [1, 3] of the same compound?
**A.** 51%

**Q.** And the “Mean percent fall in GFR during LTD4” value [1, 4]?
**A.** 50%

**Q.** What about the “Mean percent fall in RPF during LTD4” value [1, 4] of the same compound?
**A.** 68%
